Assay results: PubChem BioAssay (NCI)
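Assay format: 96-well plates, 48-hour exposure. At the GI50, growth is halved. TGI marks complete inhibition of growth.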

Tests used:
Assay in all cases: growth of human tumour cells (NCI), 48 h
[1] = tested on: SF-295 CNS
[2] = tested on: U251 CNS
[3] = tested on: SF-539 CNS
[4] = tested on: NCI-H226 lung
[5] = tested on: TK-10 renal
[6] = tested on: HCC-2998 colon
[7] = tested on: RPMI-8226 leukemia
[8] = tested on: RXF 393 renal
[9] = tested on: K-562 leukemia
[10] = tested on: HCT-15 colon

SMILES | GI50 [1] [µM] | TGI [1] [µM] | GI50 [2] [µM] | TGI [2] [µM] | GI50 [3] [µM] | TGI [3] [µM] | GI50 [4] [µM] | TGI [4] [µM] | GI50 [5] [µM] | TGI [5] [µM] | GI50 [6] [µM] | TGI [6] [µM] | GI50 [7] [µM] | TGI [7] [µM] | GI50 [8] [µM] | TGI [8] [µM] | GI50 [9] [µM] | TGI [9] [µM] | GI50 [10] [µM] | TGI [10] [µM]
CCCCCCCCCCCCC(=O)[O-].CCCCCCCCCCCCC(=O)[O-].CCCCCCCCCCCCC(=O)[O-].CCCCCCCCCCCCC(=O)[O-].[Mo+2].[Mo+2] | 6.28 | 27.7 | 10.7 | 22.6 | 13.9 | 29.1 | 12.4 | 46.8 | 32.6 | 94.6 | 19.9 | 49.8 | 4.08 | 37 | 12 | 26.1 | 10.9 | 79.8 | 10.4 | 22.1
S=c1ssc(Sc2ccccn2)c1Cl | 16.5 | 34.5 | 11 | 22.9 | 16 | 32.1 | 23 | 58.8 | 2.11 | 8.57 | 3.97 | 15.1 | 1.56 | 4.14 | 16.9 | 32.6 | 3.63 | 14.5 | 5.26 | 18.1
O=C(O)c1c[nH]cc1C(=O)O | – | > 100 | – | > 100 | – | > 100 | – | > 100 | – | > 100 | – | – | – | > 100 | – | > 100 | – | > 100 | – | > 100
COc1cc(Oc2c(O)c(C)c(OC)c(C(C)=O)c2O)c(C(C)=O)c(O)c1C | – | > 100 | – | > 100 | – | > 100 | – | > 100 | – | 86.7 | – | > 100 | – | – | – | > 100 | – | – | – | > 100
COC(=O)C(=O)C(C(=O)C=C(C)C)C(=O)C(=O)Nc1cccc(C(C)=O)c1 (stereo not drawn) | – | > 100 | – | > 100 | – | > 100 | – | > 100 | – | > 100 | – | > 100 | – | > 100 | – | > 100 | – | > 100 | – | > 100
CCN1C(=O)N(CC)C2C1NN=c1s/c(=C3\C(=O)N(C)c4ccccc43)c(=O)n12 (stereo not drawn) | 0.999 | > 28.8 | 1.97 | > 68.9 | 0.545 | 3.77 | 1.45 | > 100 | 11.2 | > 74.3 | 1.8 | > 100 | 0.89 | 12.6 | 0.587 | 4.81 | 0.352 | > 100 | 0.536 | > 100
C=C(C)[C@@H]1CC[C@@]2(C)[C@H]1[C@H]1CCC3[C@@]4(C)CC[C@H](O)C(C)(C)[C@@H]4CC[C@@]3(C)[C@]1(C)C[C@@H]2O (stereo partly drawn) | – | 80.6 | – | > 100 | – | > 100 | – | > 100 | – | > 100 | – | – | – | – | – | > 100 | – | 47.7 | – | > 100
Cn1cc(-c2ccc(CNc3cc(-c4cnc5cc(OCCCN6CCCC6)ccn45)ncn3)cc2)cn1 | – | – | 1.43 | 2.77 | 1.17 | 2.46 | 2.03 | 4.81 | 23.7 | 39.1 | 2.21 | 5.71 | 2.15 | 5.55 | 1.61 | 3.33 | 2.62 | > 100 | 2.81 | 12
CC1CC2(CC[C@@H]1O)OCCO2 (stereo partly drawn) | – | > 100 | – | > 100 | – | > 100 | – | – | – | > 100 | – | > 100 | – | > 100 | – | > 100 | – | > 100 | – | > 100
CCOC(=O)N1CCN(S(=O)(=O)c2oc(-c3ccc(Cl)cc3)nc2C#N)CC1 | 28.2 | > 100 | 5.49 | 19.6 | 3.34 | 10.5 | 64.3 | > 100 | 1.8 | 3.29 | 3.15 | 10.8 | – | – | 1.82 | 3.25 | 1.59 | > 100 | 1.49 | 3.3
C/C=C(/CCCCNCCCC)[Si](C)(C)C | – | 29.2 | – | 26.3 | – | 28.4 | – | – | – | 28.6 | – | 18.2 | – | – | – | 21 | – | 45 | – | 30
CCOc1ccc(NC(=O)CC2SC(N)=NC2=O)cc1 (stereo not drawn) | – | > 100 | – | > 100 | – | – | – | > 100 | – | > 100 | – | > 100 | – | > 100 | – | > 100 | – | – | – | –
Cc1c2ccncc2c(C)c2c1[nH]c1ccc(OC(C)(C)C)cc12 | – | 4.87 | – | 10.1 | – | 2.93 | – | 14.8 | – | 18.1 | – | 3.78 | – | 5.49 | – | – | – | 4.93 | – | –
COC(=O)[C@]1(C)CCC[C@@]2(C)C1CCC1=C[C@@]3(C(C)C)CC[C@]12OO3 (stereo partly drawn) | – | 64.4 | – | > 100 | – | 47.5 | – | 51.2 | – | > 100 | – | > 100 | – | 47 | – | – | – | > 100 | – | > 100
Nc1nc(OCc2ccccc2)nc2[nH]ncc12 | 16.9 | 31.1 | 18.9 | 42.2 | 23.3 | 47.7 | 14.8 | 32.6 | 1.39 | 14.2 | – | – | 15.2 | 38.6 | – | – | 19.7 | > 100 | 30.9 | > 100
Cc1cc(N2CCCC2)nc(N(CCCNc2ccnc3cc(Cl)ccc23)Cc2ccc3c(c2)OCO3)n1 | 1.16 | 2.89 | 1.57 | 5.2 | 1.23 | 2.6 | 5.2 | 33.8 | 2.25 | 6.81 | 1.79 | 3.79 | 0.322 | 1.72 | – | – | 0.218 | 1.86 | 0.805 | 5.82
C[C@H](CSC(=O)c1ccccc1)C(=O)N1c2ccccc2C[C@H]1C(=O)O | – | > 100 | – | > 100 | – | > 100 | – | > 100 | – | > 100 | – | > 100 | – | – | – | – | – | > 100 | – | > 100
CC1=NN(C(=O)c2ccc(Cl)cc2)C(=O)/C1=C/c1cccc([N+](=O)[O-])c1 | – | > 100 | – | > 100 | – | > 100 | – | – | – | > 100 | – | > 100 | – | > 100 | – | > 100 | – | > 100 | – | > 100
